PMC3967745 (Journal of medicinal chemistry, 2012)

Legend:
human CB2 receptor [1] = molecular target: T1, human CB2 receptor (Homo sapiens, UniProt P34972); assay: cell-based LANCE cAMP assay in CHO cells stably expressing CB2
[2] = test system: normal human mononuclear cells (PBMC); assay: cytotoxicity assay on human mononuclear cells; type: cell-based; details: 72 h, PBMC from healthy donors
human CB2 receptor [3] = molecular target: T1, human CB2 receptor; assay: [3H]CP-55,940 radioligand competition binding assay, CB2; details: calculated as Ki(CB1)/Ki(CB2) ratio

T1 sequence (P34972 whole entry): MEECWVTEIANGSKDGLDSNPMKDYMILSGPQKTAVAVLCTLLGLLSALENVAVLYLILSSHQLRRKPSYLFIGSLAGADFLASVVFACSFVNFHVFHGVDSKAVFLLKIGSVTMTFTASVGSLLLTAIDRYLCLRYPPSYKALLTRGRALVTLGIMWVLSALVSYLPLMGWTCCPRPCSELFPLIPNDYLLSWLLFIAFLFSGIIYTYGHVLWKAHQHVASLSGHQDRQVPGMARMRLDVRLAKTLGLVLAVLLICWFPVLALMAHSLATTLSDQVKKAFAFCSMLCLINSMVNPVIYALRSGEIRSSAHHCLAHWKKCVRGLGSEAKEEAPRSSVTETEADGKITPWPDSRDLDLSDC

| SMILES | functional activity at CB2 (human CB2 receptor [1]) | other results |
| --- | --- | --- |
| CN(C)c1ccc(C(NC(=O)Cc2ccccc2)NC(=O)Cc2ccccc2)cc1 [Compound 9, N,N′-((4-(Dimethylamino)phenyl)methylene)bis(2-phenylacetamide)] | inverse agonists | – |
| CC(C)c1ccc(C(NC(=O)Cc2ccccc2)NC(=O)Cc2ccccc2)cc1 [Compound 18, N,N′-((4-Isopropylphenyl)methylene)bis(2-phenylacetamide)] | CB2 inverse agonists | – |
| CCN(CC)c1ccc(C(NC(=O)Cc2ccccc2)NC(=O)Cc2ccccc2)cc1 [Compound 26, N,N′-((4-(Diethylamino)phenyl)methylene)bis(2-phenylaceta-mide)] | CB2 inverse agonists | cytotoxic effects ([2]; 1 µM): did not show any cytotoxic effects; effects on cell viability ([2]; 10 µM): only slight effects on cell viability |
| O=C(Cc1ccc(Cl)cc1)NC(NC(=O)Cc1ccc(Cl)cc1)c1ccc(C(F)(F)F)cc1 [Compound 39, N,N′-((4-(Trifluoromethyl)phenyl)methylene)bis(2-(4-chlorophenyl)acetamide)] | – | SI: selectivity index for CB2 (human CB2 receptor [3]): >198 |

Further lines, with some results ahead:

| functional activity at CB2 (human CB2 receptor [1]) | SMILES | other results |
| --- | --- | --- |
| CB2 inverse agonists | CCCN(CCC)c1ccc(C(NC(=O)Cc2ccccc2)NC(=O)Cc2ccccc2)cc1 [Compound 27, N,N′-((4-(Dipropylamino)phenyl)methylene)bis(2-phenylaceta-mide)] | – |
| CB2 inverse agonists | O=C(Cc1ccccc1)NC(NC(=O)Cc1ccccc1)c1ccc(N2CCCC2)cc1 [Compound 30, N,N′-((4-(Pyrrolidin-1-yl)phenyl)methylene)bis(2-phenylaceta-mide)] | – |
| CB2 inverse agonists | CCCCCC(=O)NC(NC(=O)CCCCC)c1ccc(N(CC)CC)cc1 [Compound 59, N,N′-((4-(Diethylamino)phenyl)methylene)dihexanamide] | – |
